From ChEMBL document CHEMBL1155495, “Structural study of phenyl boronic acid derivatives as AmpC beta-lactamase inhibitors” (Bioorg Med Chem Lett, 2010)
pKi: −log10 of the molar value.

experiment: Inhibition of AmpC beta lactamase by spectrophotometry; conditions: not given

SMILES | pKi
Nc1cc(B(O)O)ccc1C(=O)O | 5.74
O=C(O)c1ccc(C(=O)Nc2cccc(S(=O)(=O)Nc3cc(B(O)O)ccc3C(=O)O)c2)cc1 | 7.00
O=C(O)c1ccc(B(O)O)cc1NS(=O)(=O)c1cccc(S(=O)(=O)Nc2cc(B(O)O)ccc2C(=O)O)c1 | 7.64
Cc1noc(C)c1S(=O)(=O)Nc1cc(B(O)O)ccc1C(=O)O | 6.46
O=C(O)c1ccc(C(=O)Nc2ccc(S(=O)(=O)Nc3cccc(B(O)O)c3)cc2)cc1 | 6.35
O=S(=O)(Nc1cccc(B(O)O)c1)c1cccc(S(=O)(=O)Nc2cccc(B(O)O)c2)c1 | 7.22

experiment: Lipophilicity, log D of the compound; type: physicochemical; conditions: octanol/water

logD | SMILES
0.026 | O=C(O)c1ccc(B(O)O)cc1NS(=O)(=O)c1cc(S(=O)(=O)c2ccccc2)cs1
